The source of these data is US20180346518A1, “LYSOBACTIN FOR USE IN THE TREATMENT OF BOVINE MASTITIS” (BAYER ANIMAL HEALTH GMBH, priority 2015, published 2018).

Broadly, the AUC(0-inf) is total exposure, with the tail of the curve extrapolated. As usually defined, the Cmax is the maximum level reached in the sampled fluid or tissue. As a reminder, the Tmax is the time from dosing to the highest level. The term half-life denotes the time in which the quantity being followed falls by half. Low values mean fast loss, high ones slow loss. As a reminder, the AUC(0-t) is the area under the concentration-time curve up to a stated or last time point. Lower therefore signals low exposure.

Series [1] deals with Staphylococcus aureus ATCC 29740. Description: in vitro kill kinetics in milk. It counts as cell-based. The following applies: at 24 h; full-fat milk; 4, 8, 16, 32 and 64 μg/mL. On the procedure: (§1) In order to assess the ability of lysobactin to kill bacteria in milk, flasks containing different concentrations of lysobactin in store-bought full-fat milk were inoculated with 1-2×10^6 colony forming units/ml of a representative strain of either Staphylococcus aureus or Streptococcus uberis. The flasks were incubated for 24-48 hours in a shaking water bath at 35+/−2° C., and viable bacterial counts in each flask were determined at several time-points by diluting and plating samples on agar plates. A reduction of the number of viable bacteria in the initial inoculum by at least 99.9% is defined as bactericidal activity.
(§2) The kill kinetics of lysobactin against Staphylococcus aureus ATCC 29740 and Streptococcus uberis ATCC 27958 in milk were determined for concentrations of lysobactin of 4, 8, 16, 32 and 64 μg/mL. Results are depicted in FIG. 1 (CFU: colony forming units). A cidality at 24 h and 48 h, respectively, can be postulated for S. aureus and S. uberis.

Series [2] relates to Streptococcus uberis ATCC 27958. In words: in vitro kill kinetics in milk. It counts as cell-based. The following applies: at 48 h; full-fat milk; 4, 8, 16, 32 and 64 μg/mL. The procedure:
as §1, §2

A further series deals with S. uberis. Description: resistance development during serial passaging. The following applies: constant sub-MIC exposure, 33 days. It counts as cell-based, Streptococcus uberis. On the procedure: (§3) The appearance of MIC changes during constant exposure of bacteria to sub-MIC concentrations of lysobactin was assessed by serial passaging experiments. On the first day the MICs of S. aureus and S. uberis were assessed by microbroth dilution MIC methodology as described by the Clinical and Laboratory Standards Institute (CLSI). Each day for the following 33 consecutive days, bacteria from the well containing the highest concentrations allowing full growth were collected and used to inoculate new 96-well plates and to assess the MIC during constant exposure to lysobactin. The MIC obtained on each day was plotted over time. Rifampicin, which is known to result in quick changes of the MIC, was used as positive control.

A further series is described as follows: in vivo. Also on record: species or system Holstein cows. The following applies: female, Holstein, bovine, 150 mg. On the procedure:
The study was designed as a non-pivotal study suitable to investigate the milk pharmacokinetics of the active substance lysobactin after single intracisternal application to lactating dairy cows. The active substance was provided in a paraffine based service formulation suitable for intracisternal application containing 150 mg lysobactin B in 10 g oily suspension. The test item was administered as single intracisternal treatment at a dose rate of 150 mg lysobactin to a single hind quarter of four lactating dairy cows each. The dairy cows on study (Holstein cows) represented the target population in age, lactation number, lactation stage, milk yield and breed. The animals were stalled in a tie-barn and were fed with standard feed for dairy cows consisting of corn and grass silage and milk performance feed. Milking was twice daily at a 12 hour interval using a bucket-type milking device. Frequent milk sampling was performed from the treated and respective control quarters prior to (0 h) and over a period of 168 h after treatment (0.5, 1, 2, 4, 6, 8, 12, 24, 36, 48, 60, 72, 84, 96, 120, 144, and 168 h) by manual stripping of the respective udder quarters. Milk samples at routine milking times were gathered prior to milking. Concentrations of the active substance lysobactin in milk were analyzed by HPLC with detection by tandem mass spectrometry. The limit of quantitation was 0.05 mg/L. Pharmacokinetic evaluation of milk concentration data was based on non-compartmental methods and comprised PK-parameters to adequately describe the absorption, distribution and elimination profile of the active substance in milk.

Another series relates to Staphylococcus aureus. In words: dairy cow udder infection model with S. aureus. Format: in vivo, lactating dairy cows. On the procedure: Fifteen healthy lactating dairy cows were experimentally infected with the mastitis pathogen Staphylococcus aureus on all four udder quarters. […] Treatments were randomly assigned to 42 udder quarters in total, either 50 mg lysobactin per quarter (in 11 quarters), or 150 mg Lysobactin (in 11 quarters), or Ubrolexin® (in 9 quarters), or saline solution (in 11 quarters). Only udder quarters that were bacteriologically positive for the challenge organism immediately prior to treatment (n=42) were eligible for assessment of microbiological and clinical cure. The diseased quarters were treated with these intramammary formulations two times with an interval of 24 hours in between. Udders were clinically examined and milk samples were taken before treatment and several times after that until three weeks after the second administration. Milk was inspected visually for deviation in its consistency and samples were evaluated for presence of the challenge organism and for somatic cell count to confirm the diagnosis mastitis. Diseased udder quarters were considered microbiologically cured when Staphylococcus aureus found in milk samples shortly before treatment could not be isolated from any milk sample taken within the time period between the third and the twenty-first day after the second treatment. Clinical cure was achieved when the local symptoms of mastitis had completely disappeared, and recovery of somatic cell counts (SCC) as parameter of udder inflammation was attained when all counts remained below 500.000 cells per mL of milk in the period mentioned above.

The test system of another series is S. aureus. In words: resistance development during serial passaging. It counts as cell-based, Staphylococcus aureus. The following applies: constant sub-MIC exposure, 33 days. On the procedure: as §3
[3] abbreviates: 50 mg per quarter, Day 3 after second treatment.
Setting [4] is: 50 mg per quarter, Day 21 after second treatment.
[5] abbreviates: 150 mg per quarter, Day 3 after second treatment.
The mark [6] stands for this setting: 150 mg per quarter, Day 21 after second treatment.

Numbered stars: 1 amine (or outer) side, 2 acyl side, 3 side chain; on linkers, the order of the positions; unused ones are H or OH. Bridge positions count the residues as written; N and C are the ends. Square brackets hold non-standard residues; d marks the D form. Peptide text beside a SMILES is read from it. Phe(3R-OH) = O=C([C@@H](N[*:1])[C@H](O[*:3])c1ccccc1)[*:2]; Asn(3S-OH) = NC(=O)[C@@H](O)[C@H](N)C(=O)O; Leu(3R-OH) = CC(C)[C@@H](O)[C@H](N)C(=O)O; aThr = C[C@H](O)[C@H](N)C(=O)O

On to `CC[C@H](C)[C@@H]1NC(=O)[C@@H](CCCNC(=N)N)NC(=O)[C@H](CC(C)C)NC(=O)[C@H]([C@H](O)C(C)C)NC(=O)[C@@H](NC(=O)[C@H](CC(C)C)NC(=O)[C@H](N)CC(C)C)[C@@H](c2ccccc2)OC(=O)[C@H](CO)NC(=O)[C@H]([C@H](O)C(N)=O)NC(=O)CNC(=O)[C@H]([C@H](C)O)NC1=O` [lysobactin] (H-[dL]L[Phe(3R-OH)][Leu(3R-OH)]L[dR]I[aThr]G[Asn(3S-OH)]S; ester 3-C), for which the “kill kinetics, bactericidal activity (cidality)” value in series [1] and in series [2] was “cidality” throughout. Also, the “MIC change during serial passaging” value against S. uberis and in the series with S. aureus was “remain constant” each time. In “in vivo”, the total exposure AUC(0-inf) came to 2320 µg·h/mL. The concentration in the series “in vivo” peaked (Cmax) at 342 µg/mL. In the series “in vivo”, the Tmax came to 4 h. Moreover, the half-life in the series “in vivo” was 696 min. Further, the AUC(0-t) in the series “in vivo” (AUC0-12 h) amounted to 1870 µg·h/mL; in “in vivo” (AUC0-24 h) it was 2210 µg·h/mL. Besides, the microbiological cure rate in the series with Staphylococcus aureus (50 mg per quarter, 2 treatments 24 h apart, Day 3 after second treatment) is on record as 73%; with Staphylococcus aureus (setting [4]), 27%; in the series on Staphylococcus aureus (setting [5]) it was 73%; in the series with Staphylococcus aureus (setting [6]) it was 45%. The SCC recovery rate with Staphylococcus aureus (setting [3]) was determined as 36%; in the series with Staphylococcus aureus (setting [4]), 45%; in the series with Staphylococcus aureus (setting [5]), 36%; in the series on Staphylococcus aureus (setting [6]) it was 91%. For the same molecule, the “local clinical cure rate” value in the series with Staphylococcus aureus (setting [3]) is listed as 45%; with Staphylococcus aureus (setting [4]) it was 73%; in the series with Staphylococcus aureus (setting [5]), 37%; with Staphylococcus aureus (setting [6]), 82%.
